Patent US20200299671A1, “IMMOBILIZED MULTI-ENZYMATIC HALOGENATION SYSTEM” (priority 2019, published 2020)

Key:
PltM [1] = biological target: T1, PltM (Pseudomonas protegens, UniProt Q4KCZ3); assay: Halogenating competition assays in 1:1 or 10:1 mixtures of two halide salts (Assay 2a-2e), LC-MS; assay type: biochemical
Experimental: To establish if hetero-dihalogenation by PltM could be observed, halogenating competition assays in 1:1 or 10:1 mixtures of two different halide salts were performed (Assay 2). The reactions contained the same components as above except single halide salts were replaced with either a 1:1/NaCl:NaBr (Assay 2a), 1:1/NaCl:NaI (Assay 2b), or 1:1/NaBr:NaI (Assay 2c) mixtures (100 mM of each halide). The reactions were initiated by adding NADPH under N2. A 1:1/NaCl:NaBr reaction was also performed with 200 mM of each halide to test occurrence of homo-di- or hetero-chlorination/bromination, and 10:1/NaCl:NaI (Assay 2d) and 10:1/NaBr:NaI (Assay 2e) mixtures with 200 mM of NaCl or NaBr and 20 mM of NaI were tested to check whether chlorination or bromination could occur in the presence of iodide and whether iodination can occur with chlorination or bromination to yield a C1,I-substrate or Br,I-substrate. The reactions were incubated and processed as described above in Assay 1.
The halogenation reaction products were analyzed by HPLC or LC-MS by injecting 10 μL of each sample. The compounds were separated by Reversed-phase HPLC at the flow rate of 0.2 mL/min by using the following program: eluent A=H2O; eluent B=MeCN; gradient=2% B for 5 min, increase to 100% B over a 30 min period, stay at 100% B for 9 min, decrease to 2% B over a 1 min period, and re-equilibrate the column at 2% B for 30 min.
For HPLC analysis, the molecules were observed by absorbance at λ=275 nm as described above. As necessary, the following mass spectrometer was operated in negative and positive modes with the following parameters: For negative mode, mass range, 80-600 m/z in profile mode; temperature, 550° C. and ion spray voltage floating, −4500 V, and for positive mode, mass range, 80-600 m/z in profile mode; temperature, 550° C. and ion spray voltage floating, 4500 V. The presence of each compound was analyzed by extracted ion chromatograph (XIC) with the expected mass ±0.05 Da for Assay 1 and Assay 2 and ±0.005 Da for Assay 3 (FIGS. 2A-C, 8-13, and 17-37; Tables 3-4 and 7).

PltM [2] = biological target: T1, PltM; assay: X-ray crystallography of PltM crystals soaked with FAD and substrates; details: crystals soaked with 0.5 mM FAD and substrate
Experimental: PltM crystals were obtained by the hanging drop method with drops containing 0.5 μL of PltM (40 mg/mL) and 0.5 μL of the reservoir solution (0.1 M Tris pH 8, 0.2 M NaCl, 0.1 M CaCl2) and 12-17% PEG 8000). The drops were equilibrated against 0.5 mL of reservoir solution at 21° C. Long rod-shaped crystals appeared after 1-3 days. The crystals were cryoprotected by a gradual transfer to the solution with the same composition as the reservoir solution, additionally containing 20% glycerol. The crystals were then frozen by a rapid immersion into liquid nitrogen.
However, PltM contains eight Cys residues, which, if accessible, would react with Hg salts. […] The structure was determined by the single anomalous dispersion (SAD) method from the EMP derivative data set (using the wavelength of 1.0 Å), as follows. […] This Hg substructure was used as an input in Autosolve in PHENIX suite to obtain initial phases, which were bootstrapped by difference Fourier analysis to yield the total of 33 Hg atoms and a readily interpretable electron density map, with the figure of merit of 0.71 after density modification. […]
PltM crystals were soaked in the reservoir solution used to obtained native PltM crystals, with additional 0.5 mM of FAD. […] FAD was readily discernable in the omit Fo-Fc map. […]

T1 sequence (Q4KCZ3 entry or part of it): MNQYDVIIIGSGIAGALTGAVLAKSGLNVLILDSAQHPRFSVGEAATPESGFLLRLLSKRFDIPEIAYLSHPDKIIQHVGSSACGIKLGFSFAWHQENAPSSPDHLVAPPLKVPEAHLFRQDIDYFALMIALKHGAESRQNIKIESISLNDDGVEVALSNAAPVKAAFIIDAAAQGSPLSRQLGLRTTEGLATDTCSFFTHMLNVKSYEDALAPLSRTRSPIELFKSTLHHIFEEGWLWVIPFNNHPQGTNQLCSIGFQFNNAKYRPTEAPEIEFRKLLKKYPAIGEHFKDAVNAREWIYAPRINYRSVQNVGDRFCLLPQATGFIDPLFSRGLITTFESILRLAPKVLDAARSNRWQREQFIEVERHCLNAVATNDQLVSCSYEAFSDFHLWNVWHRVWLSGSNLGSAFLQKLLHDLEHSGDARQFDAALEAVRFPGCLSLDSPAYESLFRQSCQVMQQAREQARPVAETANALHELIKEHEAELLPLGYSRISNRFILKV

## Oc1cc(O)cc(O)c1 [Compound 1, phloroglucinol]
PltM [1]; 10-fold molar excess of NaBr over NaI
  products of competitive halogenation: mono-brominated, mono-iodinated, and diiodinated 1 were identified
PltM [1]; 10-fold molar excess of NaCl over NaI
  products of competitive halogenation: all possible mono- and dihalogenated products were identified, including chloro-iodinated 1
PltM [1]; two halides (Cl/Br, Cl/I or Br/I) at equimolar ratios
  products of competitive halogenation: mono-halogenated products of either halogen and diiodinated 1 where NaI was used
PltM [2]
  omit Fo-Fc electron density of substrate in soaked PltM crystals: yielded omit Fo-Fc electron density
